Several values for one entry are separate records, joined by “and”; a condition that tells them apart may be missing. Equal values may be shown once.
Target: T1, GPR73 (prokineticin 1 receptor) (Homo sapiens, UniProt Q8TCW9)
T1 construct: expressed in transfected cells; host or cells: HEK 293
Experiment: PK1 functional assay: Ca2+ mobilization screening for PK1 antagonists on the FLIPR
Assay type: cell-based
Conditions: HEK 293 GPR73 cells, multiple values = multiple testing; for inhibition at 10 µM: HEK293, 10 μM compound, read-out: Ca^2+ Mobilization % Inh @ 10 μM; for IC50: PK1 ligand preparation at its EC50, read-out: Ca^2+ Mobilization IC50; for Ca^2+ Mobilization % Inh @ 10 μM: 10 μM compound
In short: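 HEK293 cells expressing human GPR73 were loaded with Calcium Plus dye, then on FLIPR given compound for 4 min 15 s before PK1 ligand at its predetermined EC50. Baseline-subtracted fluorescence over 1 min 45 s gave percent inhibition versus maximal signal; IC50 fitted.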

T1 sequence (Q8TCW9 whole entry, species assumed): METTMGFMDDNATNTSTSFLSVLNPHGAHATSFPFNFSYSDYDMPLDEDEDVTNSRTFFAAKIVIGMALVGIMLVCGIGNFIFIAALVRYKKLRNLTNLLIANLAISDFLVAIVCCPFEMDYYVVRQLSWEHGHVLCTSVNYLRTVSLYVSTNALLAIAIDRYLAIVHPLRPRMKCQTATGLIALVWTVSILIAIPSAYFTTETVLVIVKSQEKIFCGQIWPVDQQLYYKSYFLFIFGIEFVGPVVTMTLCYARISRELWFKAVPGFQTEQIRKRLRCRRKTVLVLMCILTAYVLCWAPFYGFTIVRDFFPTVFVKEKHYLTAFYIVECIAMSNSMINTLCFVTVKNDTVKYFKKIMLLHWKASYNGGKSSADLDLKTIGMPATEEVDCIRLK

Row | SMILES | inhibition at 10 µM | IC50 | Ca^2+ Mobilization % Inh @ 10 μM
1 | Cc1cc(C)c(CNc2nc(=O)n(Cc3ccc(CO)cc3)c(=O)n2Cc2ccc(OC(F)F)cc2)cn1 [Cpd 191] | 50% | 8370 nM | 
2 | Cc1cc(C)c(CNc2nc(=O)n(Cc3ccc4c(c3)nnn4C)c(=O)n2Cc2ccc(OC(F)F)cc2)cn1 [Cpd 192] | 80% | 146 nM and 1060 nM | 82%
3 | COc1ccc(Cn2c(=O)nc(NCc3cnc(C)cc3C)n(Cc3ccc(OC(F)F)cc3)c2=O)cc1 [Cpd 193] |  | > 10000 nM | 39%
4 | Cc1cc(C)c(CNc2nc(=O)n(Cc3ccc(C(N)=O)cc3)c(=O)n2Cc2ccc(OC(F)F)cc2)cn1 [Cpd 194] | 49% | 6220 nM | 
5 | Cc1cc(C)c(CNc2nc(=O)n(Cc3ccc4snnc4c3)c(=O)n2Cc2ccc(OC(F)F)cc2)cn1 [Cpd 196] | 84% | 451 nM | 
6 | COCCCCCn1c(=O)nc(NCc2cnc(C)cc2C)n(Cc2ccc(OC)cc2)c1=O [Cpd 197] | 54% | 2840 nM | 
7 | COCCCCCn1c(=O)nc(NCc2cnc(C)cc2C)n(Cc2ccc(OC(F)F)cc2)c1=O [Cpd 198] | 64% | 1040 nM | 
8 | COc1ccc(Cn2c(=O)nc(NCc3cccnc3N)n(Cc3ccc(OC)cc3OC)c2=O)cc1 [Cpd 200] | 87% | 304 nM | 
9 | COc1ccc(Cn2c(=O)nc(NCc3cnc(C)cc3C)n(Cc3ccc(OC)c(F)c3)c2=O)cc1 [Cpd 204] | 102% | 68 nM | 
10 | COc1ccc(Cn2c(=O)nc(NCc3cnc(C)cc3C)n(Cc3ccc(OC)cc3F)c2=O)cc1 [Cpd 206] | 102% | 46 nM | 
11 | COc1ccc(Cn2c(NCc3cnc(C)cc3C)nc(=O)n(Cc3ccc4c(c3)OCO4)c2=O)cc1 [Cpd 207] | 92% | 461 nM and 471 nM | 93%
12 | Cc1cc(C)c(CNc2nc(=O)n(Cc3ccc4c(c3)OCO4)c(=O)n2Cc2ccc(OC(F)F)cc2)cn1 [Cpd 208] | 73% | 1270 nM | 
13 | COc1ccc(Cn2c(NCc3cnc(C)cc3C)nc(=O)n(Cc3ccc4c(c3)OCCO4)c2=O)cc1 [Cpd 209] | 51% | 7730 nM | 
14 | Cc1cc(C)c(CNc2nc(=O)n(Cc3ccc4c(c3)OCCO4)c(=O)n2Cc2ccc(OC(F)F)cc2)cn1 [Cpd 210] | 39% | > 10000 nM | 
15 | COc1ccc(Cn2c(=O)nc(NCc3c(C)cc(C)nc3N)n(Cc3ccc4c(c3)CC(C)O4)c2=O)cc1 (stereo not drawn) [Cpd 212] | 103% | 21 nM and 50 nM | 99%
16 | COc1ccc(Cn2c(NCc3c(C)cc(C)nc3N3CCCCC3)nc(=O)n(Cc3ccc(OC)cc3)c2=O)cc1 [Cpd 213] | 45% | > 10000 nM | 
17 | COc1ccc(Cn2c(NCc3cnc(C)cc3C)nc(=O)n(Cc3ccc4c(c3)nnn4C)c2=O)cc1 [Cpd 216] | 80% | 1060 nM | 
18 | COc1ccc(Cn2c(NCc3cnc(C)cc3C)nc(=O)n(Cc3ccc4snnc4c3)c2=O)cc1 [Cpd 217] | 81% | 1010 nM | 
19 | COc1ccc(Cn2c(NCc3cnc(C)cc3C)nc(=O)n(Cc3ccc(OC)c(F)c3)c2=O)cc1 [Cpd 218] | 94% | 104 nM | 
20 | Cc1cc(C)c(CNc2nc(=O)n(Cc3ccc4c(c3)OCO4)c(=O)n2Cc2ccc(OC(F)F)cc2)c(N)n1 [Cpd 219] | 94% | 136 nM and 158 nM | 97%
21 | COc1ccc(Cn2c(NCc3c(C)cc(C)nc3N)nc(=O)n(Cc3ccc4c(c3)OCO4)c2=O)cc1 [Cpd 220] | 98% | 43 nM | 
22 | Cc1cc(C)c(CNc2nc(=O)n(Cc3ccc4c(c3)nnn4C)c(=O)n2Cc2ccc(OC(F)F)cc2)c(N)n1 [Cpd 221] | 98% | 45 nM and 72 nM | 96%
23 | COc1ccc(Cn2c(NCc3c(C)cc(C)nc3N)nc(=O)n(Cc3ccc4c(c3)nnn4C)c2=O)cc1 [Cpd 222, 6-[(2-Amino-4,6-dimethyl-pyridin-3-ylmethyl)-amino]-1-(4-methoxy-benzyl)-3-(1-methyl-1H-benzotriazol-5-ylmethyl)-1H-[1,3,5]triazine-2,4-dione] | 98% | 60 nM | 
24 | COCCCCCn1c(NCc2c(C)cc(C)nc2N)nc(=O)n(Cc2ccc(OC)cc2)c1=O [Cpd 224, 6-[(2-Amino-4,6-dimethyl-pyridin-3-ylmethyl)-amino]-3-(4-methoxy-benzyl)-1-(5-methoxy-pentyl)-1H-[1,3,5]triazine-2,4-dione] | 97% | 7 nM and 11 nM | 
25 | Cc1cc(C)[n+]([O-])c(N)c1CNc1nc(=O)n(Cc2ccc3c(c2)CCO3)c(=O)n1Cc1ccc2c(c1)CCO2 [Cpd 226, 6-[(2-Amino-4,6-dimethyl-1-oxy-pyridin-3-ylmethyl)-amino]-1,3-bis-(2,3-dihydro-benzofuran-5-ylmethyl)-1H-[1,3,5]triazine-2,4-dione] | 85% | 922 nM | 
26 | Cc1cc(C)c(CNc2nc(=O)n(Cc3ccc4[nH]ccc4c3)c(=O)n2Cc2ccc(OC(F)F)cc2)cn1 [Cpd 227] | 44% | > 10000 nM | 
27 | Nc1ncccc1CNc1nc(=O)n(Cc2ccc3[nH]ccc3c2)c(=O)n1Cc1ccc(OC(F)F)cc1 [Cpd 228] | 63% | 3400 nM | 
28 | COc1ccc(Cn2c(NCc3cnc(C)cc3C)nc(=O)n(Cc3ccc4[nH]ccc4c3)c2=O)cc1 [Cpd 229] | 41% | > 10000 nM | 
29 | COc1ccc(Cn2c(NCc3cccnc3N)nc(=O)n(Cc3ccc4[nH]ccc4c3)c2=O)cc1 [Cpd 230] | 66% | 2750 nM | 
30 | Cc1cc(C)[n+]([O-])c(N)c1CNc1nc(=O)n(Cc2ccc3c(c2)CCO3)c(=O)n1Cc1ccc(OC(F)F)cc1 [Cpd 233, 6-[(2-Amino-4,6-dimethyl-1-oxy-pyridin-3-ylmethyl)-amino]-1-(4-difluoromethoxy-benzyl)-3-(2,3-dihydro-benzofuran-5-ylmethyl)-1H-[1,3,5]triazine-2,4-dione] | 96% | 69 nM and 130 nM | 97%

Continued, values first:

Row | inhibition at 10 µM | IC50 | Ca^2+ Mobilization % Inh @ 10 μM | SMILES
31 | 66% | 579 nM |  | COc1ccc(Cn2c(NCc3cccn4ccnc34)nc(=O)n(Cc3ccc(OC)cc3)c2=O)cc1 [Cpd 188, 6-[(Imidazo[1,2-a]pyridin-8-ylmethyl)-amino]-1,3-bis-(4-methoxy-benzyl)-1H-[1,3,5]triazine-2,4-dione]
32 | 38% | > 10000 nM |  | COc1ccc(Cn2c(CCc3cccnc3C(N)=O)cc(=O)n(Cc3ccc(OC)cc3)c2=O)cc1 [Cpd 189]
33 | 79% | 502 nM |  | COc1ccc(Cn2c(OCc3cccnc3N)cc(=O)n(Cc3ccc(OC)cc3)c2=O)cc1 [Cpd 190]
34 | 92% | 169 nM and 691 nM | 95% | COc1ccc(Cn2c(CCc3cccnc3N)cc(=O)n(Cc3ccc(OC)cc3)c2=O)cc1 [Cpd 199, 6-[2-(2-Amino-pyridin-3-yl)-ethyl]-1,3-bis-(4-methoxy-benzyl)-1H-pyrimidine-2,4-dione]
35 | 95% | 327 nM |  | COc1ccc(Cn2c(NCc3cnccc3C)nc(=O)n(Cc3ccc(OC)cc3)c2=O)cc1 [Cpd 201]
36 | 70% | 830 nM |  | COc1ccc(Cn2c(OCc3c(C)cc(C)nc3N)cc(=O)n(Cc3ccc(OC)cc3)c2=O)cc1 [Cpd 202]
37 | 103% | 60 nM |  | COc1ccc(Cn2c(=O)nc(NCc3cccnc3N)n(Cc3ccc(OC)c(F)c3)c2=O)cc1 [Cpd 203]
38 | 102% | 106 nM |  | COc1ccc(Cn2c(=O)nc(NCc3cccnc3N)n(Cc3ccc(OC)cc3F)c2=O)cc1 [Cpd 205]
39 | 52% | 4580 nM |  | COc1ccc(Cn2c(SCc3cccnc3)cc(=O)n(Cc3ccc(OC)cc3)c2=O)cc1 [Cpd 211, 1,3-Bis-(4-methoxy-benzyl)-6-(pyridin-3-ylmethylsulfanyl)-1H-pyrimidine-2,4-dione]
40 | 53% | 7160 nM |  | COc1ccc(Cn2c(CCc3cnccc3N)cc(=O)n(Cc3ccc(OC)cc3)c2=O)cc1 [Cpd 214]
41 |  | 500 nM and 2780 nM | 104% and 68% | COc1ccc(Cn2c(NCCc3ccncc3)nc(=O)n(Cc3ccc(OC)cc3)c2=O)cc1 [Cpd 215]
42 | 53% | 5680 nM |  | COc1ccc(Cn2c(CCc3cccc(N)n3)cc(=O)n(Cc3ccc(OC)cc3)c2=O)cc1 [Cpd 223, 6-[2-(6-Amino-pyridin-2-yl)-ethyl]-1,3-bis-(4-methoxy-benzyl)-1H-pyrimidine-2,4-dione]
43 | 68% | 3780 nM |  | COc1ccc(Cn2c(OC(C)c3ccnc(N)c3)cc(=O)n(Cc3ccc(OC)cc3)c2=O)cc1 (stereo not drawn) [Cpd 225]
44 | 89% | 245 nM |  | COc1ccc(Cn2c(NCc3cccnc3N)nc(=O)n(Cc3ccc(Cl)cc3)c2=O)cc1 [Cpd 231]
45 | 33% | > 10000 nM |  | COc1ccc(Cn2c(OCc3ccnc(N)n3)cc(=O)n(Cc3ccc(OC)cc3)c2=O)cc1 [Cpd 232]
46 | 66% | 2590 nM |  | COc1ccc(Cn2c(NC(C)c3ccccn3)nc(=O)n(Cc3ccc(OC)cc3)c2=O)cc1 (stereo not drawn) [Cpd 234]
47 | 98% | 85 nM |  | COc1ccc(Cn2c(NCc3ccc(C(F)(F)F)cn3)nc(=O)n(Cc3ccc(OC)cc3)c2=O)cc1 [Cpd 235]
48 | 64% | 1270 nM |  | COc1ccc(Cn2c(NCc3ncccc3C(F)(F)F)nc(=O)n(Cc3ccc(OC)cc3)c2=O)cc1 [Cpd 236]
49 | 69% | 1680 nM |  | COc1ccc(Cn2c(NCc3cc(C(F)(F)F)ccn3)nc(=O)n(Cc3ccc(OC)cc3)c2=O)cc1 [Cpd 237]

Reference: patent publication US20080287445A1, “Prokineticin 2 receptor antagonists” (priority 2005, published 2008)
